Consider one substance from patent publication US5736161A, “Pharmaceutical preparation for improving the bioavailability of drugs which are difficult to absorb and a procedure for obtaining it” (Lipotec S.A., priority 1993, dated 1998).

The test system of data set [1] is Xa. Put plainly: Bioavailability test in dogs: anti-Xa activity in the plasma, ex-vivo chromogenic test (Coatest). The arrangement: species or system dog. On the procedure: Bioavailability tests on the capsules prepared according to examples 1 and 2.
(§1) Bioavailability studies in which the animals received 40 mg of heparin by the oral route or 10 mg by the subcutaneous route over a period of three days.
(§2) Four dogs (2 for each treatment), each approximately 15 kg in weight.
A bioassay (anti-Xa activity) was used to measure the concentrations in the plasma.
The anti-Xa activity in the plasma was measured ex-vivo using a chromogenic test using a commercially available kit (Coatest) and expressed in IU/ml. The values were calculated from a calibration curve obtained in-vitro by adding different quantities of SLMWH to dog plasma.
The blood was extracted from the femoral vein. Starting on the second day of experiments samples were collected before and 1, 2, 3, 4 and 6 hours after oral or subcutaneous administration, sodium citrate was added to the samples (9 vol. sangre:1 vol. 3.8% sodium citrate) followed by centrifuging at 1200 rpm for 20 minutes at 4° C. The plasma was separated immediately and the anti-Xa activity was tested.

Data set [2] in a line: Urine analysis by proton NMR after chondroitinase AC treatment. Type of data set: in vivo, dog. As to conditions: chondroitinase AC treated, route not distinguished. On the procedure:
as §1, §2
(§3) The urine samples were treated with chondroitinase AC to eliminate the endogenous chondroitins. The residue was analyzed by means of proton NMR and HPLC (to determine the molecular weight).

Data set [3] is described as follows: Urine analysis by HPLC (molecular weight) after chondroitinase AC treatment. Type of data set: in vivo, dog. Conditions: chondroitinase AC treated, route not distinguished. On the procedure:
as §1, §2, §3

Setting [4] is: oral, capsules (examples 1 and 2), 40 mg heparin, second day.
Where [5] appears, read: subcutaneous, 10 mg heparin, second day.

With “sodium heparin of low molecular weight [SLMWH]”, the “levels of heparin in the blood (anti-Xa activity method)” value in data set [1] (setting [4]) is listed as “detectable”; in data set [1] (subcutaneous injection, 10 mg heparin, second day), “detectable”. In addition, the “peak values of anti-Xa activity in plasma” value is recorded as 0.2-0.4 IU/ml in data set [1] (setting [4]); 0.8-1.2 IU/ml in data set [1] (oral, capsules (examples 1 and 2), 40 mg heparin, third day, 1 and 2 hours after administration); 0.2-0.4 IU/ml in data set [1] (setting [5]); 0.8-1.2 IU/ml in data set [1] (subcutaneous, 10 mg heparin, third day, 1 and 2 hours after administration). In addition, the “significant anti-Xa activity in plasma after 6 hours” value in data set [1] (oral, capsules (examples 1 and 2), 40 mg heparin, third day) is reported as above 0.3 IU/ml; in data set [1] (subcutaneous, 10 mg heparin, third day), above 0.3 IU/ml. The “significant continued anti-Xa activity (>0.1 IU/ml) for 3 hours” value in data set [1] (oral, capsules, 40 mg heparin, second day, not found after oral) is listed as “only after subcutaneous administration”. Besides, the “duration of significant continued anti-Xa activity (>0.1 IU/ml) in plasma” value in data set [1] (setting [5]) was determined as 3 h. Besides, the “significant continued anti-Xa activity in plasma” value in data set [1] (subcutaneous, 10 mg heparin, second day, for 3 hours) is recorded as above 0.1 IU/ml. Further, in data set [1] (third day vs previous day, oral or subcutaneous, route not distinguished), the “basal values of anti-Xa activity before the final dose” value is “significantly higher than the corresponding values on the previous day”. Besides, the “H1-NMR test of urine” value in data set [2] is given as “presence of partially disulphated heparin”. The “molecular weight of the urine residue (HPLC)” value in data set [3] amounted to 5 kDaltons.
